IC50 data for two compounds are collected here from BindingDB's records for PubMed 35176561 (Shenyang Pharmaceutical University, 2022).

The assay concerns the target Amyloid-beta precursor protein (Homo sapiens, UniProt P05067). Nature of the assay: Inhibition of amyloid beta 42 (unknown origin) secretion.

Molecules are shown by their SMILES.

Amyloid-beta precursor protein, sequence (P05067 whole entry): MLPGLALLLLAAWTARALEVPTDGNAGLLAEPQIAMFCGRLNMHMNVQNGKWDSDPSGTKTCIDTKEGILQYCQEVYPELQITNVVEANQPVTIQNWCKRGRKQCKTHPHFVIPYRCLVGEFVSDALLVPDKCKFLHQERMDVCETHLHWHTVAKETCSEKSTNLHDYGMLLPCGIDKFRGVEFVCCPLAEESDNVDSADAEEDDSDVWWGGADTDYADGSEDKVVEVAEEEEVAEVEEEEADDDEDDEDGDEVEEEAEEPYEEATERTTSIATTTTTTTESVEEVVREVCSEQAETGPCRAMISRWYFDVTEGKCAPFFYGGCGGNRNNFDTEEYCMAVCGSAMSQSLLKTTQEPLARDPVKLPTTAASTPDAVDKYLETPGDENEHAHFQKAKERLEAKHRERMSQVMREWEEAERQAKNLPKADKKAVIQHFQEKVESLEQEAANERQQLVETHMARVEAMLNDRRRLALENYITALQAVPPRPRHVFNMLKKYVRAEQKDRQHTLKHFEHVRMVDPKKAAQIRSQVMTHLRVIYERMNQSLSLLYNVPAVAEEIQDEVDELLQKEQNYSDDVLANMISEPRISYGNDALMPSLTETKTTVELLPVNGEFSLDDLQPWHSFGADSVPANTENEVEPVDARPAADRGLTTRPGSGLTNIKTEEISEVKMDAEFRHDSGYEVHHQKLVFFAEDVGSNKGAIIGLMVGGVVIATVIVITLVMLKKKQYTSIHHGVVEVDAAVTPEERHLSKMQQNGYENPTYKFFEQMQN

In the case of `COc1nc(-c2cc(C)c(N[C@@H](C)c3cc(F)cc(F)c3)nn2)ccc1-n1cnc(C)c1`, the IC50 (in general, the concentration that gives 50% inhibition) was 4.1 nM. That is a single-digit nanomolar value. As to `COc1nc(-c2cc(C)c(N[C@@H](C)c3cc(F)c(F)c(F)c3)nn2)ccc1-n1cnc(C)c1`, the IC50 came to 5.3 nM. The IC50 values of the last two compounds are within 1.5-fold of each other.
